Assay results published in ChEMBL document CHEMBL4020777, “Cytotoxic and apoptosis-inducing activities against human lung cancer cell lines of cassaine diterpenoids from the bark of Erythrophleum fordii” (Bioorg Med Chem Lett, 2017).

What was measured:
NCI-H1975 [1] = assay: Cytotoxicity against human NCI-H1975 cells by MTT assay; type: functional, cell-based
A549 [2] = assay: Cytotoxicity against human A549 cells by MTT assay; type: functional, cell-based
NCI-H1299 [3] = assay: Cytotoxicity against human NCI-H1299 cells by MTT assay; type: functional, cell-based
NCI-H1975 [4] = assay: Induction of apoptosis in human NCI-H1975 cells assessed as late apoptotic cells at 0.3 uM after 48 hrs by Annexin-V-FITC/propidium iodide staining based flow cytometric method (reference value: 2.92 to 4.29%); type: functional
A549 [5] = assay: Induction of apoptosis in human A549 cells assessed as late apoptotic cells at 3 uM after 48 hrs by Annexin-V-FITC/propidium iodide staining based flow cytometric method (reference value: 3.4 to 4.76%); type: functional
NCI-H1299 [6] = assay: Induction of apoptosis in human NCI-H1299 cells assessed as early apoptotic cells at 3 uM after 48 hrs by Annexin-V-FITC/propidium iodide staining based flow cytometric method (reference value: 1.91%); type: functional
NCI-H1975 [7] = assay: Induction of apoptosis in human NCI-H1975 cells after 48 hrs by Annexin-V-FITC/propidium iodide staining based flow cytometric method; type: functional, cell-based
NCI-H1975 [8] = assay: Induction of apoptosis in human NCI-H1975 cells assessed as early apoptotic cells at 3 uM after 48 hrs by Annexin-V-FITC/propidium iodide staining based flow cytometric method (reference value: 2.5 to 3.56%); type: functional
NCI-H1299 [9] = assay: Induction of apoptosis in human NCI-H1299 cells assessed as late apoptotic cells at 3 uM after 48 hrs by Annexin-V-FITC/propidium iodide staining based flow cytometric method (reference value: 2.69%); type: functional
A549 [10] = assay: Induction of apoptosis in human A549 cells after 48 hrs by Annexin-V-FITC/propidium iodide staining based flow cytometric method; type: functional, cell-based
NCI-H1299 [11] = assay: Induction of apoptosis in human NCI-H1299 cells assessed as early apoptotic cells at 0.3 uM after 48 hrs by Annexin-V-FITC/propidium iodide staining based flow cytometric method (reference value: 1.91%); type: functional
NCI-H1975 [12] = assay: Induction of apoptosis in human NCI-H1975 cells assessed as early apoptotic cells at 0.3 uM after 48 hrs by Annexin-V-FITC/propidium iodide staining based flow cytometric method (reference value: 2.5 to 3.56%); type: functional
NCI-H1975 [13] = assay: Induction of apoptosis in human NCI-H1975 cells assessed as late apoptotic cells at 3 uM after 48 hrs by Annexin-V-FITC/propidium iodide staining based flow cytometric method (reference value: 2.92 to 4.29%); type: functional
NCI-H1299 [14] = assay: Induction of apoptosis in human NCI-H1299 cells after 48 hrs by Annexin-V-FITC/propidium iodide staining based flow cytometric method; type: functional, cell-based
A549 [15] = assay: Induction of apoptosis in human A549 cells assessed as early apoptotic cells at 3 uM after 48 hrs by Annexin-V-FITC/propidium iodide staining based flow cytometric method (reference value: 1.04 to 2.73%); type: functional
NCI-H1299 [16] = assay: Induction of apoptosis in human NCI-H1299 cells assessed as late apoptotic cells at 0.3 uM after 48 hrs by Annexin-V-FITC/propidium iodide staining based flow cytometric method (reference value: 2.69%); type: functional
A549 [17] = assay: Induction of apoptosis in human A549 cells assessed as early apoptotic cells at 0.3 uM after 48 hrs by Annexin-V-FITC/propidium iodide staining based flow cytometric method (reference value: 1.04 to 2.73%); type: functional
A549 [18] = assay: Induction of apoptosis in human A549 cells assessed as late apoptotic cells at 0.3 uM after 48 hrs by Annexin-V-FITC/propidium iodide staining based flow cytometric method (reference value: 3.4 to 4.76%); type: functional
NCI-H1975 [19] = assay: Induction of apoptosis in human NCI-H1975 cells assessed as late apoptotic cells at 0.1 uM after 48 hrs by Annexin-V-FITC/propidium iodide staining based flow cytometric method (reference value: 2.92 to 4.29%); type: functional
A549 [20] = assay: Induction of apoptosis in human A549 cells assessed as late apoptotic cells at 0.1 uM after 48 hrs by Annexin-V-FITC/propidium iodide staining based flow cytometric method (reference value: 3.4 to 4.76%); type: functional
NCI-H1975 [21] = assay: Induction of apoptosis in human NCI-H1975 cells assessed as early apoptotic cells at 0.1 uM after 48 hrs by Annexin-V-FITC/propidium iodide staining based flow cytometric method (reference value: 2.5 to 3.56%); type: functional
NCI-H1299 [22] = assay: Induction of apoptosis in human NCI-H1299 cells assessed as early apoptotic cells at 0.1 uM after 48 hrs by Annexin-V-FITC/propidium iodide staining based flow cytometric method (reference value: 1.91%); type: functional
NCI-H1299 [23] = assay: Induction of apoptosis in human NCI-H1299 cells assessed as late apoptotic cells at 0.1 uM after 48 hrs by Annexin-V-FITC/propidium iodide staining based flow cytometric method (reference value: 2.69%); type: functional
A549 [24] = assay: Induction of apoptosis in human A549 cells assessed as early apoptotic cells at 0.1 uM after 48 hrs by Annexin-V-FITC/propidium iodide staining based flow cytometric method (reference value: 1.04 to 2.73%); type: functional

| SMILES | IC50 (NCI-H1975 [1]) | IC50 (A549 [2]) | IC50 (NCI-H1299 [3]) | also measured |
| --- | --- | --- | --- | --- |
| CNCCOC(=O)/C=C1\CC[C@H]2[C@@H](C(=O)[C@H](O)[C@@H]3[C@]2(C)CCC[C@]3(C)C(=O)OC)[C@H]1C | 3300 nM | 2100 nM | 1500 nM |  |
| CNCCOC(=O)/C=C1\CC[C@H]2[C@@H]([C@@H](O)C(=O)[C@@H]3[C@]2(C)CCC[C@]3(C)C(=O)OC)[C@H]1C | 1000 nM | 900 nM | 1200 nM |  |
| COC(=O)[C@@]1(C)CCC[C@@]2(C)[C@H]1[C@@H](O)C(=O)[C@H]1[C@@H](C)/C(=C/C(=O)OCCN(C)C)CC[C@@H]12 | 5900 nM | 4800 nM | 3800 nM |  |
| COC(=O)CC1=CC[C@H]2[C@@H](C(=O)[C@H](O)[C@@H]3[C@]2(C)CCC[C@]3(C)C(=O)OC)[C@H]1C | > 10000 nM | > 10000 nM | > 10000 nM |  |
| COC(=O)[C@@]1(C)CCC[C@@]2(C)[C@H]1C[C@H](O)[C@H]1[C@@H](C)/C(=C/C(=O)OCCN(C)C)CC[C@@H]12 | 2600 nM | 3100 nM | 2400 nM |  |
| COC(=O)/C=C1\CC[C@H]2[C@@H](C(=O)C[C@@H]3[C@]2(C)CC[C@H](OC(C)=O)[C@]3(C)C(=O)OC)[C@H]1C | > 10000 nM | > 10000 nM | > 10000 nM |  |
| C/C=C(\C)C(=O)O[C@H]1CC[C@@]2(C)[C@@H](CC(=O)[C@H]3[C@@H](C)/C(=C/C(=O)OCCNC)CC[C@@H]32)[C@@]1(C)C(=O)OC | 400 nM | 500 nM | 900 nM | Activity (NCI-H1975 [4]): 3.02%; Activity (A549 [5]): 12.24%; Activity (NCI-H1299 [6]): 16.48%; Activity (NCI-H1975 [7]): Dose-dependent effect; Activity (NCI-H1975 [8]): 5.2%; Activity (NCI-H1299 [9]): 8.14%; Activity (A549 [10]): Dose-dependent effect; Activity (NCI-H1299 [11]): 4.52%; Activity (NCI-H1975 [12]): 2.14%; Activity (NCI-H1975 [13]): 7.56%; Activity (NCI-H1299 [14]): Dose-dependent effect; Activity (A549 [15]): 7.27%; Activity (NCI-H1299 [16]): 3.24%; Activity (A549 [17]): 1.87%; Activity (A549 [18]): 3.96% |
| CC[C@@]1(O)C(=O)OCc2c1cc1n(c2=O)Cc2cc3ccccc3nc2-1 [CAMPTOTHECIN] | 1200 nM | 700 nM | 800 nM | Activity (NCI-H1975 [4]): 31.47%; Activity (NCI-H1975 [19]): 6.73%; Activity (A549 [20]): 10.25%; Activity (NCI-H1975 [7]): Dose-dependent effect; Activity (A549 [10]): Dose-dependent effect; Activity (NCI-H1975 [21]): 5.54%; Activity (NCI-H1299 [11]): 13.16%; Activity (NCI-H1975 [12]): 7.9%; Activity (NCI-H1299 [14]): Dose-dependent effect; Activity (NCI-H1299 [22]): 13.04%; Activity (NCI-H1299 [16]): 9.44%; Activity (A549 [17]): 20.33%; Activity (NCI-H1299 [23]): 5.22%; Activity (A549 [24]): 14.17%; Activity (A549 [18]): 14.14% |
| COC(=O)[C@@]1(C)CCC[C@@]2(C)[C@H]1CC(=O)[C@H]1[C@@H](C)/C(=C/C(=O)OCCN(C)C)CC[C@@H]12 | 2100 nM | 3400 nM | 1900 nM |  |
| COC(=O)[C@@]1(C)CCC[C@@]2(C)[C@H]1C(=O)[C@H](O)[C@H]1[C@@H](C)/C(=C/C(=O)OCCN(C)C)CC[C@@H]12 | > 10000 nM | > 10000 nM | > 10000 nM |  |
| C/C=C(\C)C(=O)O[C@H]1CC[C@@]2(C)[C@@H](C(=O)[C@H](O)[C@H]3[C@@H](C)/C(=C/C(=O)OCCNC)CC[C@@H]32)[C@@]1(C)C(=O)OC | 1100 nM | 1400 nM | 1200 nM |  |
| C/C=C(\C)C(=O)O[C@H]1CC[C@@]2(C)[C@@H]([C@@H](O)C(=O)[C@H]3[C@@H](C)/C(=C/C(=O)OC)CC[C@@H]32)[C@@]1(C)C(=O)OC | > 10000 nM | > 10000 nM | > 10000 nM |  |
| COC(=O)/C=C1\CC[C@H]2[C@@H]([C@@H](O)C(=O)[C@@H]3[C@]2(C)CCC[C@]3(C)C(=O)OC)[C@H]1C | > 10000 nM | > 10000 nM | > 10000 nM |  |
| COC(=O)/C=C1\CC[C@H]2[C@@H](C(=O)[C@H](O)[C@@H]3[C@]2(C)CCC[C@]3(C)C(=O)OC)[C@H]1C | > 10000 nM | > 10000 nM | > 10000 nM |  |
